# Assay results reported in patent US10744087B2, “Method to slow ventricular rate” (InCarda Therapeutics, Inc., priority 2018, dated 2020).
# Structures can show the parent of a compound that is named as a salt. Where two headings read alike, the source gives them in different places.
# Key:
# atrial arrhythmia = conditions: intravenous, 5 to 15 mg bolus doses; cited from earlier work
# animal models of AF = experiment: Intratracheal co-delivery of metoprolol and flecainide in pig AF models (Example 7); assay type: in vivo, male Yorkshire pigs
# Procedure: Experimental animal models of AF (male Yorkshire pigs), and study reagents (metoprolol and flecainide) were prepared according to similar procedures described in Examples 5 and 6. In this example, the animals received IT administration of either metoprolol alone (0.2 mg/kg or 0.4 mg/kg), a cocktail of metoprolol and flecainide (0.2 mg/kg and 0.75 mg/kg, respectively, or 0.4 mg/kg and 0.75 mg/kg, respectively), or flecainide alone (0.75 mg/kg).
# [1] = tested on: pig models of induced atrial fibrillation; experiment: Left ventricular contractility (LV dP/dt) and mean arterial pressure before and after AF, atrial pacing 160 beats/min (Example 5); assay type: in vivo, male Yorkshire pigs; conditions: IT metoprolol 0.2 mg/kg
# Procedure: The catheters were positioned under fluoroscopic control. Electrograms were recorded from a decapolar electrode catheter positioned in the LV. Mean arterial pressure (MAP) was continuously recorded from a femoral arterial sheath. LV blood pressure was continuously monitored from a pigtail catheter. A catheter was introduced into the pericardial space via the right atrial appendage for delivery of intrapericardial acetylcholine. Atrial pacing at 160 beats/min was accomplished by delivering electrical stimuli to the right atrial catheter electrodes. Electrograms were monitored using a Prucka CardioLab workstation (GE Medical Systems, Milwaukee Wis.) from atrial and ventricular sites. For intratracheal instillation of metoprolol solution or sterile water, a 5 Fr angiography catheter was introduced into the trachea via the endotracheal tube, extending ˜1 cm past the tube, and its tip was positioned under fluoroscopy at the tracheal carina level. AF duration was compared starting at 2 min after AF was induced, when the IT instillation was administered. The average ventricular rate for each AF was obtained by the mean of six measurements of ventricular rate performed each 30 seconds between the IT delivery (sterile water or metoprolol instillation) and the AF conversion to sinus rhythm. Contractility (LV dP/dt) and MAP were recorded during atrial pacing at 160 beats/min before AF was induced and after it was terminated. Statistical analyses were performed using the SAS system (version 9.4) to apply ANOVA with post-hoc Dunnett's test for each time point. Data are reported as means±SEM. Statistical significance was assumed at p<0.05.
# [2] = tested on: pig models with induced atrial fibrillation; experiment: Intratracheal nebivolol or metoprolol, alone or combined with flecainide, in pig models with induced atrial fibrillation (Example 6); assay type: in vivo, male Yorkshire pigs
# Procedure: The investigations were conducted in male Yorkshire pigs. The animals were preanesthetized with telazol (4.7 mg/kg, intramuscular) and subsequently were further anesthetized using alpha-chloralose (80-mg/kg IV bolus followed by 24-mg/kg/h continuous IV infusion). The pigs were intubated and ventilated at a constant rate of 12 breaths/min and tidal volume of 400 ml per stroke.
# The catheters were positioned under fluoroscopic control. Electrograms were recorded from a decapolar electrode catheter positioned in the LV. Mean arterial pressure (MAP) was continuously recorded from a femoral arterial sheath. LV blood pressure was continuously monitored from a pigtail catheter. A catheter was introduced into the pericardial space via the right atrial appendage for delivery of intrapericardial acetylcholine. Atrial pacing at 160 beats/min was accomplished by delivering electrical stimuli to the right atrial catheter electrodes. Electrograms were monitored using a Prucka CardioLab workstation (GE Medical Systems, Milwaukee Wis.) from atrial and ventricular sites. For intratracheal instillation of metoprolol solution or sterile water, a 5 Fr angiography catheter was introduced into the trachea via the endotracheal tube, extending ˜1 cm past the tube, and its tip was positioned under fluoroscopy at the tracheal carina level.
# Metoprolol obtained in powder form was used to prepare a stock solution of 15.3 mg/ml by dissolving the drug in 100% dimethyl sulfoxide (DMSO). A volume was withdrawn from the stock solution to achieve a 2 mg/kg IT dose and was supplemented with sterile water to attain a 2 ml total volume for bolus injection.
# For Nebivolol (racemic mixtures of d- and l-nebivolol), a stock solution of 25 mg/ml was prepared by dissolving the drug in 100% DMSO. The dose was 0.3 mg/kg for intratracheal instillation. The corresponding volume was withdrawn from the stock solution based on body weight of the pig, and the allocated volume was completed with sterile water to attain 2 ml total volume. The administration was made with a 5 cc syringe with 2 ml of 0.3 mg/kg nebivolol solution and 3 ml of air.
# AF was induced with 1 mL of a 102.5 mM solution of acetylcholine bolus delivered through the pericardial catheter, followed by saline flush (2 mL). Burst pacing at a cycle length of 178 ms was performed at 1 minute after intrapericardial administration of ACh. After AF initiation, lavage was carried out with 20 mL of saline.
# For the intratracheal instillation of metoprolol (0.2 mg/kg or 0.4 mg/kg), nebivolol (0.3 mg/kg), flecainide (0.75 mg/kg), or cocktail of metoprolol and flecainide (0.2 mg/kg and 0.75 mg/kg, respectively), the drug agent was administered in 2 mL total volume in a single “push” of 2-3 seconds, followed by 3 ml of air in a 5 ml syringe, via the […] Sterile water (2 ml) was used as a placebo for intratracheal instillation in the baseline AF. A washout period of 30 to 60 min was allowed between inductions of each occurrence of AF.
# AF duration was compared starting at 2 min after AF was induced, when the IT instillation was administered. The average ventricular rate for each AF was obtained by the mean of six measurements of ventricular rate performed each 30 seconds between the IT delivery (sterile water or metoprolol instillation) and the AF conversion to sinus rhythm.
# For the study of nebivolol, in 2 of the 4 animals that were tested, at 60 min following nebivolol administration, flecainide was administered to test the effect of combined use of nebivolol and flecainide. For the study of metoprolol, given that metoprolol can have a short half-life in vivo, the effect of combined use of metoprolol and flecainide was tested by giving a second IT dose of metoprolol-flecainide cocktail 60 min following the first IT dose of metoprolol in the animals.
# [3] = tested on: pig models of induced atrial fibrillation; experiment: Intratracheal metoprolol in pig model of acetylcholine/burst-pacing induced atrial fibrillation (Example 5): AF duration, PR interval, dominant frequency, ventricular rate; assay type: in vivo, male Yorkshire pigs; conditions: for reduction of ventricular rate during AF: IT metoprolol 0.2 mg/kg vs baseline AF with sterile water
# Procedure: Experiments described herein (e.g., Examples 5-7) complied with the National Institutes of Health Guide for the Care and Use of Laboratory Animals as well as the Declaration of Helsinki. The protocol was approved by the institutional animal use committee of Beth Israel Deaconess Medical Center (Boston Mass.). The investigations were conducted in male Yorkshire pigs weighing 46±1.8 kg. The animals were preanesthetized with telazol (4.7 mg/kg, intramuscular) and subsequently were further anesthetized using alpha-chloralose (80-mg/kg IV bolus followed by 24-mg/kg/h continuous IV infusion). The pigs were intubated and ventilated at a constant rate of 12 breaths/min and tidal volume of 400 ml per stroke. The catheters were positioned under fluoroscopic control. Electrograms were recorded from a decapolar electrode catheter positioned in the LV. Mean arterial pressure (MAP) was continuously recorded from a femoral arterial sheath. LV blood pressure was continuously monitored from a pigtail catheter. A catheter was introduced into the pericardial space via the right atrial appendage for delivery of intrapericardial acetylcholine. Atrial pacing at 160 beats/min was accomplished by delivering electrical stimuli to the right atrial catheter electrodes. Electrograms were monitored using a Prucka CardioLab workstation (GE Medical Systems, Milwaukee Wis.) from atrial and ventricular sites. For intratracheal instillation of metoprolol solution or sterile water, a 5 Fr angiography catheter was introduced into the trachea via the endotracheal tube, extending ˜1 cm past the tube, and its tip was positioned under fluoroscopy at the tracheal carina level. Metoprolol solutions of 0.2 mg/kg for intratracheal instillation were prepared by dilution of stock solution of 15.3 mg/ml in saline, originally obtained from metoprolol in powder form by dilution in dimethyl sulfoxide (DMSO). Plasma samples were analyzed using a high-performance liquid chromatography tandem mass spectrometric assay at Climax Laboratories, Inc. (San Jose Calif.). AF was induced with 1 mL of a 102.5 mM solution of acetylcholine bolus delivered through the pericardial catheter, followed by saline flush (2 mL). Burst pacing at a cycle length of 178 ms was performed at 1 minute after intrapericardial administration of ACh. After AF initiation, lavage was carried out with 20 ml of saline. For the intratracheal instillation of metoprolol (2 ml of 0.2 mg/kg concentration followed by 3 ml of air in a 5 ml syringe), the agent was administered in a single “push” via the modified angiography catheter positioned in the endotracheal tube at the beginning of the inspiration phase after two minutes of consolidated atrial fibrillation. Sterile water (2 ml) was used as a placebo for intratracheal instillation in the baseline AF. A washout period of 30 to 60 min was allowed between inductions of each occurrence of AF. AF duration was compared starting at 2 min after AF was induced, when the IT instillation was administered. The average ventricular rate for each AF was obtained by the mean of six measurements of ventricular rate performed each 30 seconds between the IT delivery (sterile water or metoprolol instillation) and the AF conversion to sinus rhythm. Contractility (LV dP/dt) and MAP were recorded during atrial pacing at 160 beats/min before AF was induced and after it was terminated. Statistical analyses were performed using the SAS system (version 9.4) to apply ANOVA with post-hoc Dunnett's test for each time point. Data are reported as means±SEM. Statistical significance was assumed at p<0.05.
# [4] = cited from earlier work
# [5] = tested on: new onset atrial fibrillation or flutter; conditions: esmolol-treated patients with new onset atrial fibrillation or flutter; cited from earlier work
# atrial fibrillation = conditions: given in oral pills; several studies (Ferreira 1997 review); cited from earlier work
# [6] = AF induced 30 min after IT nebivolol 0.3 mg/kg
smiles,measurement,setting,value
"COCCc1ccc(OCC(O)CNC(C)C)cc1 (racemic) [metoprolol, (±) 1-(isopropylamino)-3-[p-(2-methoxyethyl)phenoxy]-2-propanol]",conversion rate of atrial arrhythmia,atrial arrhythmia,13%
same,patients with rate reduced at least 25% or to less than 100 bpm,atrial arrhythmia,68%
same,reduction in the AF duration,animal models of AF; IT 0.2 mg/kg metoprolol alone,about 20%
same,reduction in the average ventricular rate during the AF conversion,animal models of AF; IT 0.2 mg/kg metoprolol alone,about 10%
same,reduction in the AF duration,animal models of AF; IT 0.4 mg/kg metoprolol alone,about 27%
same,reduction in the average ventricular rate during the AF conversion,animal models of AF; IT 0.4 mg/kg metoprolol alone,about 10%
same,MAP after AF,"[1]; before AF 125±4.3, p=0.26, pacing 160 beats/min",118±4.0
same,contractility (LV dP/dt) after AF conversion,"[1]; before AF 2337±252.7, pacing 160 beats/min",1951±277.9
same,change in MAP,[1]; before vs after AF,no significant changes
same,reduction in contractility (LV dP/dt) after conversion,"[1]; pacing 160 beats/min, p=0.006, not different from AF baseline reduction (p=0.85)",17.5±4.0%
same,reduction of ventricular rate during AF,[2]; AF 30 min after IT metoprolol 0.2 mg/kg,moderate
same,shortening of the AF duration,[2]; AF induced 30 min after IT metoprolol 0.2 mg/kg,about 36%
same,shortening of the AF duration,"[2]; AF induced right after IT metoprolol 0.2 mg/kg alone, vs placebo baseline AF",about 28%
same,reduction in ventricular rate during AF,"[2]; AF induced right after IT metoprolol 0.2 mg/kg, vs baseline AF",about 13%
same,occurrence of atrial flutter during conversion,[3]; IT metoprolol 0.2 mg/kg,In none of the animals did atrial flutter occur
same,reduction of ventricular rate during AF,[3],12±2.6%
same,reduction of ventricular rate during AF,[3]; p=0.007,32 beats/min
same,reduction of AF dominant frequency,"[3]; IT metoprolol 0.2 mg/kg vs baseline AF, p=0.04",31%
same,shortening of the AF duration,"[3]; IT metoprolol 0.2 mg/kg vs placebo baseline AF (sterile water IT), p=0.018",20.4±4.9%
same,AF dominant frequency,"[3]; IT metoprolol 0.2 mg/kg, baseline AF 8.7±0.94",6±1.1 Hz
same,ventricular rate during AF,"[3]; IT metoprolol 0.2 mg/kg, baseline AF 272±13.7",240±12.6 beats/min
same,AF duration,"[3]; IT metoprolol 0.2 mg/kg, placebo baseline 10.3±2.0, mean±SEM",8.0 ± 1.5 min
same,PR interval,"[3]; metoprolol 0.2 mg/kg bolus IT, from 174±11.2, p=0.07",182 ± 11.4 ms
same,increase in PR interval,"[3]; metoprolol 0.2 mg/kg bolus IT, trend, p=0.07",4%
"OC(CNCC(O)C1CCc2cc(F)ccc2O1)C1CCc2cc(F)ccc2O1 (racemic) [nebivolol, 2,2′-Azanediylbis(1-(6-fluorochroman-2-yl)ethanol)]",water solubility,[4]; water,low water solubility
same,reduction in ventricular rate during AF,[2]; [6],about 22%
same,shortening of the AF duration,[2]; [6],about 33%
same,reduction in ventricular rate during AF,[2]; AF induced right after IT nebivolol 0.3 mg/kg,about 10%
same,shortening of the AF duration,"[2]; IT nebivolol 0.3 mg/kg, administered right before the AF induction, vs placebo baseline AF",about 24%
OC(CNCC(O)C1CCc2cc(F)ccc2O1)C1CCc2cc(F)ccc2O1 (centres unmarked) [Nebivolol hydrochloride],solubility,"[4]; in ethanol, propylene glycol, and polyethylene glycol",sparingly soluble
same,solubility,"[4]; in hexane, dichloromethane, and methylbenzene",very slightly soluble
same,solubility,"[4]; in methanol, dimethylsulfoxide, and N,N-dimethylformamide",soluble
COC(=O)CCc1ccc(OCC(O)CNC(C)C)cc1 (centres unmarked) [esmolol],patients converted to sinus rhythm,[5],about 50%
O=C(NCC1CCCCN1)c1cc(OCC(F)(F)F)ccc1OCC(F)(F)F (centres unmarked) [flecainide],reduction in the average ventricular rate during AF,animal models of AF; IT 0.75 mg/kg flecainide alone,about 10%
CC(C)NCC(O)c1ccc(NS(C)(=O)=O)cc1 (centres unmarked) [soltalol],efficacy for acute conversion of atrial fibrillation to normal sinus rhythm,atrial fibrillation,8-49%
